Assay results from ChEMBL document CHEMBL2021851, “Synthesis and SAR studies of imidazo-[1,2-a]-pyrazine Aurora kinase inhibitors with improved off-target kinase selectivity” (Bioorg Med Chem Lett, 2012).

Tests used:
[1] = biological target: T1, Aurora kinase A (Homo sapiens, UniProt O14965); assay: Inhibition of aurora A kinase using 5TAMRA-GRTGRRNSICOOH as substrate by fluorescent assay
T1 sequence (O14965 whole entry): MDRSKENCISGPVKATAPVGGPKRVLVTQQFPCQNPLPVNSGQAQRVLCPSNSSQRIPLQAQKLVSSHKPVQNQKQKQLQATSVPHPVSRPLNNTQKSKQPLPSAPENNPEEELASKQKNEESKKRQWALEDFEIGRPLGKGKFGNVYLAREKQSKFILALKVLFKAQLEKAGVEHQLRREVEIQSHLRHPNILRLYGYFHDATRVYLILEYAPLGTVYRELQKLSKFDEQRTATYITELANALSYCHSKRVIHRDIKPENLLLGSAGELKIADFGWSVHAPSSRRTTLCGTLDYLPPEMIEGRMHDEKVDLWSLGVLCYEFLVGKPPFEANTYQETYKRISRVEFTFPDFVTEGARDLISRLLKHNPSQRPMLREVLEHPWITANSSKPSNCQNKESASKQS

[2] = biological target: T2, Aurora kinase B (Homo sapiens, UniProt Q96GD4); assay: Inhibition of aurora B kinase using 5TAMRA-GRTGRRNSICOOH as substrate by fluorescent assay
[3] = biological target: T2, Aurora kinase B; assay: Inhibition of aurora B kinase in human HCT116 cells assessed as inhibition of histone H3 phosphorylation incubated for 1 hr by Hoechst 33342 staining based microscopic analysis; type: cell-based, HCT-116
[4] = biological target: Vascular endothelial growth factor receptor 2 (Homo sapiens, UniProt P35968); assay: Inhibition of VEGFR2
[5] = biological target: Tyrosine-protein kinase Lck (Homo sapiens, UniProt P06239); assay: Inhibition of LCK
[6] = biological target: T3, Serine/threonine-protein kinase Chk1 (Homo sapiens, UniProt O14757); assay: Inhibition of Chk1
T3 sequence (O14757 whole entry): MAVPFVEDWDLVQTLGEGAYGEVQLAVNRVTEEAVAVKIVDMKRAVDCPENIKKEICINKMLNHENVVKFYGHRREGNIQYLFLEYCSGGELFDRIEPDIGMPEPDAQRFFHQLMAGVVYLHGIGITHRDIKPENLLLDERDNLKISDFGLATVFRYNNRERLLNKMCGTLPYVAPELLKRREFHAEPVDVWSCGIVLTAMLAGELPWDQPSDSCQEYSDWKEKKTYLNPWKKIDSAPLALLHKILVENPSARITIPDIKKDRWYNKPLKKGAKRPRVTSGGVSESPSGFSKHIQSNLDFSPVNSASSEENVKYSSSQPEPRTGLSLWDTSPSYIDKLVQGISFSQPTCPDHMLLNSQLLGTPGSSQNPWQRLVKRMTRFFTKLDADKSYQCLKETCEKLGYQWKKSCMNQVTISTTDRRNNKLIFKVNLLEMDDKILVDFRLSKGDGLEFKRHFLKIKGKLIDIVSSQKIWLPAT

[7] = biological target: T4, Interleukin-1 receptor-associated kinase 4 (Homo sapiens, UniProt Q9NWZ3); assay: Inhibition of IRAK4
T4 sequence (Q9NWZ3 whole entry): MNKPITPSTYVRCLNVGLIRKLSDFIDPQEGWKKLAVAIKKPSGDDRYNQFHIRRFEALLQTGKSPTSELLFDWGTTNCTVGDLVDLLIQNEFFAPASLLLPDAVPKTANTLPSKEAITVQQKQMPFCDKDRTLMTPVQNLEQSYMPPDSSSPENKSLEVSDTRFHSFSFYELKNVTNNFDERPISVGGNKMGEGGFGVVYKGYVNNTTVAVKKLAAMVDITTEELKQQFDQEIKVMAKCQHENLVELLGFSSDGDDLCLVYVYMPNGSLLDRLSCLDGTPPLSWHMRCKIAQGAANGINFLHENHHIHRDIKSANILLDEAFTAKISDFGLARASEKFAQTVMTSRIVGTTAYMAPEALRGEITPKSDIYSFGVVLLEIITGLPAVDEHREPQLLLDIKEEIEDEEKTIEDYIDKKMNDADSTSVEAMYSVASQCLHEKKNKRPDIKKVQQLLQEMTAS

[8] = biological target: Ribosomal protein S6 kinase alpha-3 (Homo sapiens, UniProt P51812); assay: Inhibition of RSK2
Ribosomal protein S6 kinase alpha-3, sequence (P51812 whole entry): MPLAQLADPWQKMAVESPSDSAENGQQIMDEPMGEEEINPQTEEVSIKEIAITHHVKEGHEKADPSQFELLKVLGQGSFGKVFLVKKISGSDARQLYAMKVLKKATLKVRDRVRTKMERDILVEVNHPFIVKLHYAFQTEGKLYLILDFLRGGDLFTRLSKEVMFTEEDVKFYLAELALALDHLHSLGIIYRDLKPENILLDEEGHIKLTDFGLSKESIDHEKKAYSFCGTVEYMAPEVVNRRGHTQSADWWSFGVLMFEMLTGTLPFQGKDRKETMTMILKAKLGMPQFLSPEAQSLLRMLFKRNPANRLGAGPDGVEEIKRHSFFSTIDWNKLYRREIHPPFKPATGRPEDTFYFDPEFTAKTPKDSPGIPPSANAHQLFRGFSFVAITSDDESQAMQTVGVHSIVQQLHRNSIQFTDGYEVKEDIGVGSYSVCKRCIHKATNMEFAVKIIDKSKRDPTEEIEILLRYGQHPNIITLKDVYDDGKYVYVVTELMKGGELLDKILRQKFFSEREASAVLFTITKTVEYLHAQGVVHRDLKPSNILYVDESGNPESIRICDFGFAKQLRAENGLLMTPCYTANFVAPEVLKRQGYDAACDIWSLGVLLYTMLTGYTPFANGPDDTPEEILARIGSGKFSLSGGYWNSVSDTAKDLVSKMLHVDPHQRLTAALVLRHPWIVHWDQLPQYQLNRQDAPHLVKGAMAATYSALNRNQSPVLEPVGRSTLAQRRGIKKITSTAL

T2 sequence (Q96GD4 whole entry): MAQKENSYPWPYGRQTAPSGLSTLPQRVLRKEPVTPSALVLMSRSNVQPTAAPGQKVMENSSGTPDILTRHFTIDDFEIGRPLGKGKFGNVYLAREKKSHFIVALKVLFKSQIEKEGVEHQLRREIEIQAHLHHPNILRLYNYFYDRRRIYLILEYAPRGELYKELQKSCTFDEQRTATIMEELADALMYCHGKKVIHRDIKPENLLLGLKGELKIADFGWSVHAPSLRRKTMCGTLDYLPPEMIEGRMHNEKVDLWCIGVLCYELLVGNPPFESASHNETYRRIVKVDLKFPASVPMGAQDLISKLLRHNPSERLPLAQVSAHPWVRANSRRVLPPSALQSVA
Vascular endothelial growth factor receptor 2, sequence (P35968 whole entry): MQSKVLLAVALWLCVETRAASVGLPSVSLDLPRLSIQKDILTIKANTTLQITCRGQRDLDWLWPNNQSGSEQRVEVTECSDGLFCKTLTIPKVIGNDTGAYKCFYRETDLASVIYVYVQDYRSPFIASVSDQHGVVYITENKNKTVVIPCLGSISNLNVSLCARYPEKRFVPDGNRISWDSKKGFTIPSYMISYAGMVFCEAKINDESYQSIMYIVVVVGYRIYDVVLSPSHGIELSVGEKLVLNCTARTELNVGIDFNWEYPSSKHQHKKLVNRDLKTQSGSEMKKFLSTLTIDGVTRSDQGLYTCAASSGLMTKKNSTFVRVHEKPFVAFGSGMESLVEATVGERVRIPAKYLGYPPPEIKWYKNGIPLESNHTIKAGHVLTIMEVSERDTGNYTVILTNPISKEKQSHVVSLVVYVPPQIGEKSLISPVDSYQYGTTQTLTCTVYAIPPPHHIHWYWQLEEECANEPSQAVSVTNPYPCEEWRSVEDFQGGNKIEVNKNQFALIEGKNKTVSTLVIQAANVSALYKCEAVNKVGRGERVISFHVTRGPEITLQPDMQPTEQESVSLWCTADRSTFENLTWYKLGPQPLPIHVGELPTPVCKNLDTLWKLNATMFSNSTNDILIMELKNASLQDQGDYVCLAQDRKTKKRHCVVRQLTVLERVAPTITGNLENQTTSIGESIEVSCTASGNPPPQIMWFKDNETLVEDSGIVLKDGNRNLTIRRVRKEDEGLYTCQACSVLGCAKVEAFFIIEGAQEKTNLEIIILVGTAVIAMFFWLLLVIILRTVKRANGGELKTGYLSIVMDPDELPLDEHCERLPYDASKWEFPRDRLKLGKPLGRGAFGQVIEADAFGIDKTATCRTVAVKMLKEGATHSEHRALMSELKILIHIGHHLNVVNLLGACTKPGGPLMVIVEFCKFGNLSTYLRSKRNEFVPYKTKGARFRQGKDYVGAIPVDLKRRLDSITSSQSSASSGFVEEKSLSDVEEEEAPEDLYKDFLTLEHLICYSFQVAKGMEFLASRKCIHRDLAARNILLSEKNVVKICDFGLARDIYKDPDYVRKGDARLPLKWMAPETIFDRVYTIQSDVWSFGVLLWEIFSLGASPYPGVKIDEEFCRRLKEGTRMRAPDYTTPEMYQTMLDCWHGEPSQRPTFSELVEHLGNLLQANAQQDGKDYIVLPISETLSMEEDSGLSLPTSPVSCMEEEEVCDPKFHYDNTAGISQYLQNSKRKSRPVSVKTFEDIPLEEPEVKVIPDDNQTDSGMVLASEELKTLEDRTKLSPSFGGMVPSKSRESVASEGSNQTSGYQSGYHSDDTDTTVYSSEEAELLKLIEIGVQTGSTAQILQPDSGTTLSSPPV
Tyrosine-protein kinase Lck, sequence (P06239 whole entry): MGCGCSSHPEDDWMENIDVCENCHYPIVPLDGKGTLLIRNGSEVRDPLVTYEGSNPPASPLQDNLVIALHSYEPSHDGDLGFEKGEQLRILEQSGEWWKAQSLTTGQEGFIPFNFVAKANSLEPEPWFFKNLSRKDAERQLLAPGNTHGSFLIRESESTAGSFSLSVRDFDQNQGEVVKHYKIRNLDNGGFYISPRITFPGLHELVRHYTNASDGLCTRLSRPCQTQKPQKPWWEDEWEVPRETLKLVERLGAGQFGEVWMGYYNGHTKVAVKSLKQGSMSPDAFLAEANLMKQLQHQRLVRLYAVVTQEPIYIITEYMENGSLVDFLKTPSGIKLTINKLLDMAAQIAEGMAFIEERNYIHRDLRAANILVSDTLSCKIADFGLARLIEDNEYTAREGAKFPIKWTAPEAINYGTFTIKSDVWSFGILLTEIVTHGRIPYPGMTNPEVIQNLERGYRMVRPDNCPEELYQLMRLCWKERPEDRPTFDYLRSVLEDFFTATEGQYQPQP

| IC50 [1] [nM] | IC50 [2] [nM] | EC50 [3] [nM] | IC50 [4] [nM] | IC50 [5] [nM] | IC50 [6] [nM] | IC50 [7] [nM] | IC50 [8] [nM] | SMILES |
| --- | --- | --- | --- | --- | --- | --- | --- | --- |
| 27 | ≤ 13 | 193 | 234 | 579 | 300 | 873 | 7700 | Cc1cn2c(-c3cnn(CC(=O)NCc4cccs4)c3)cnc2c(Nc2cc(CN3CCCC(C)C3)ns2)n1 (stereo unspecified) |
| 12 | ≤ 13 | 83 | 108 | 731 | 100 | 1140 | 1100 | Cc1cn2c(-c3cnn(CC(=O)Nc4ccncc4)c3)cnc2c(Nc2cc(CN3CCCC(C)C3)ns2)n1 (stereo unspecified) |
